This is an account of results in patent US10689381B2 (priority 2017, dated 2020).

Like-named read-outs stand apart in the source and are kept apart here.

One experiment deals with HCT116. As to the kind of experiment: cells. In kind it is cell-based, human. Particulars: for IC50: read-out: IC50 HCT116; for potency relative to vinblastine (more potent): vinblastine-sensitive cell lines. As for the experimental part: (§1) A population of cells (>1×10^6 cells/mL as determined with a hemocytometer) was diluted with Dulbecco's Modified Eagle Medium (DMEM, Gibco) containing 10% fetal bovine serum (FBS, Gibco) to give a final concentration of 30,000 cells/mL. To each well of a 96-well plate (Corning® Costar®) was added 100 μL of the cell media solution with a multichannel pipet.
(§2) The test compounds were then added to the plate as follows: test compounds were diluted in DMSO to a concentration of 1 mM. 10-Fold serial dilutions in DMSO were next performed on a separate 96-well plate. Fresh culture media (100 μL) was added to each well of cells resulting in 200 μL of medium per well followed by 2 μL of each test agent. Compounds were tested in duplicate (n=2-8 times) at six concentrations between 0-1000 nM or 0-10000 nM. Following the addition of compound, cultures were incubated for an additional 72 hours.
(§3) The plates were incubated at 37° C. for 5 minutes (L1210) or 15 min (HCT116 and HCT116/VM46).

In the next experiment the test system is L1210. Briefly: cells. Format: cell-based, mouse. As for the experimental part:
as §1, §2, §3

The term IC50 denotes the concentration at which inhibition is half-maximal. Consider `CCC1(NC(=O)C2CCc3ccccc3C2)CC2CN(CCc3c([nH]c4ccccc34)C(C(=O)OC)(c3cc4c(cc3OC)N(C)C3C(O)(C(=O)OC)C(OC(C)=O)C5(CC)C=CCN6CCC43C65)C2)C1` (mixture of isomers) [Compound 122], for which the IC50 with HCT116 (Table 4) was 580 nM; with L1210 (Table 4) it was 420 nM.
As for `CCC(=O)NC1(CC)CC2CN(CCc3c([nH]c4ccccc34)C(C(=O)OC)(c3cc4c(cc3OC)N(C)C3C(O)(C(=O)OC)C(OC(C)=O)C5(CC)C=CCN6CCC43C65)C2)C1` (stereo not shown) [Compound 12], the concentration for half-maximal inhibition (IC50) with HCT116 (Table 1) and in the experiment on L1210 (Table 1) was 60 nM in each case.
`CC[C@]1(NC(=O)C(C)C)C[C@H]2CN(CCc3c([nH]c4ccccc34)[C@@](C(=O)OC)(c3cc4c(cc3OC)N(C)[C@H]3[C@@](O)(C(=O)OC)[C@H](OC(C)=O)[C@]5(CC)C=CCN6CC[C@]43[C@@H]65)C2)C1` [Compound 13]: the IC50 in the experiment on HCT116 (Table 1) was 90 nM; with L1210 (Table 1), 70 nM.
In the same order, the values of `CC[C@]1(NC(=O)C(C)(C)C)C[C@H]2CN(CCc3c([nH]c4ccccc34)[C@@](C(=O)OC)(c3cc4c(cc3OC)N(C)[C@H]3[C@@](O)(C(=O)OC)[C@H](OC(C)=O)[C@]5(CC)C=CCN6CC[C@]43[C@@H]65)C2)C1` [Compound 14] are 3600 nM and 2800 nM.
In the same order, the values of `CCCCCC(=O)N[C@@]1(CC)C[C@H]2CN(CCc3c([nH]c4ccccc34)[C@@](C(=O)OC)(c3cc4c(cc3OC)N(C)[C@H]3[C@@](O)(C(=O)OC)[C@H](OC(C)=O)[C@]5(CC)C=CCN6CC[C@]43[C@@H]65)C2)C1` [Compound 15] are 40 nM and 55 nM.
For `CCC1(NC(=O)C2CC2)CC2CN(CCc3c([nH]c4ccccc34)C(C(=O)OC)(c3cc4c(cc3OC)N(C)C3C(O)(C(=O)OC)C(OC(C)=O)C5(CC)C=CCN6CCC43C65)C2)C1` (stereo not shown) [Compound 17], in that order: 6.1 nM and 5.5 nM.
Regarding `CC[C@]1(NC(=O)C2CCCC2)C[C@H]2CN(CCc3c([nH]c4ccccc34)[C@@](C(=O)OC)(c3cc4c(cc3OC)N(C)[C@H]3[C@@](O)(C(=O)OC)[C@H](OC(C)=O)[C@]5(CC)C=CCN6CC[C@]43[C@@H]65)C2)C1` [Compound 19], the IC50 was 25 nM in the experiment with HCT116 (Table 1) and 30 nM in the experiment on L1210 (Table 1).
`CC[C@]1(NC(=O)C2CCCCC2)C[C@H]2CN(CCc3c([nH]c4ccccc34)[C@@](C(=O)OC)(c3cc4c(cc3OC)N(C)[C@H]3[C@@](O)(C(=O)OC)[C@H](OC(C)=O)[C@]5(CC)C=CCN6CC[C@]43[C@@H]65)C2)C1` [Compound 20]: the IC50 in the experiment with HCT116 (Table 1) was found to be 70 nM; with L1210 (Table 1), 55 nM.
With `CCC1(NC(=O)Cc2ccccc2)CC2CN(CCc3c([nH]c4ccccc34)C(C(=O)OC)(c3cc4c(cc3OC)N(C)C3C(O)(C(=O)OC)C(OC(C)=O)C5(CC)C=CCN6CCC43C65)C2)C1` (stereo not shown) [Compound 21], the IC50 in the experiment on HCT116 (Table 1) and in the experiment with L1210 (Table 1) was 55 nM throughout.
Take `CC[C@]1(NC(=O)C(c2ccccc2)c2ccccc2)C[C@H]2CN(CCc3c([nH]c4ccccc34)[C@@](C(=O)OC)(c3cc4c(cc3OC)N(C)[C@H]3[C@@](O)(C(=O)OC)[C@H](OC(C)=O)[C@]5(CC)C=CCN6CC[C@]43[C@@H]65)C2)C1` [Compound 22]: the figures for the IC50 with HCT116 (Table 1) and in the experiment on L1210 (Table 1) were 3800 nM and 760 nM, respectively.
As for `C=CC(=O)N[C@@]1(CC)C[C@H]2CN(CCc3c([nH]c4ccccc34)[C@@](C(=O)OC)(c3cc4c(cc3OC)N(C)[C@H]3[C@@](O)(C(=O)OC)[C@H](OC(C)=O)[C@]5(CC)C=CCN6CC[C@]43[C@@H]65)C2)C1` [Compound 23], the half-inhibitory concentration (IC50) in the experiment on HCT116 (Table 1) was 6 nM; in the experiment with HCT116 (Table 3), 6 nM; with L1210 (Table 1) it was 7 nM; in the experiment with L1210 (Table 3), 7 nM.
With `CCC1(NC(=O)c2ccc(C)cc2)CC2CN(CCc3c([nH]c4ccccc34)C(C(=O)OC)(c3cc4c(cc3OC)N(C)C3C(O)(C(=O)OC)C(OC(C)=O)C5(CC)C=CCN6CCC43C65)C2)C1` (stereo not shown) [Compound 25], the IC50 worked out at 0.45 nM in the experiment on HCT116 (Table 2) and 0.5 nM with L1210 (Table 2). For the same molecule, in the experiment on HCT116, the “potency relative to vinblastine (more potent)” value was 10 fold.
For `CC[C@]1(NC(=O)c2cccc(C)c2)C[C@H]2CN(CCc3c([nH]c4ccccc34)[C@@](C(=O)OC)(c3cc4c(cc3OC)N(C)[C@H]3[C@@](O)(C(=O)OC)[C@H](OC(C)=O)[C@]5(CC)C=CCN6CC[C@]43[C@@H]65)C2)C1` [Compound 26], in that order: 0.7 nM, 0.5 nM and 10 fold.
Regarding `CC[C@]1(NC(=O)c2ccccc2C)C[C@H]2CN(CCc3c([nH]c4ccccc34)[C@@](C(=O)OC)(c3cc4c(cc3OC)N(C)[C@H]3[C@@](O)(C(=O)OC)[C@H](OC(C)=O)[C@]5(CC)C=CCN6CC[C@]43[C@@H]65)C2)C1` [Compound 27], the figures for the IC50 with HCT116 (Table 2) and in the experiment with L1210 (Table 2) were 50 nM and 55 nM, respectively.
For the molecule `CC[C@]1(NC(=O)c2cc(C)cc(C)c2)C[C@H]2CN(CCc3c([nH]c4ccccc34)[C@@](C(=O)OC)(c3cc4c(cc3OC)N(C)[C@H]3[C@@](O)(C(=O)OC)[C@H](OC(C)=O)[C@]5(CC)C=CCN6CC[C@]43[C@@H]65)C2)C1` [Compound 29], the values for the IC50 in the experiment on HCT116 (Table 2) and in the experiment on L1210 (Table 2) were 6 nM and 5.4 nM, respectively.
As for `CCc1ccc(C(=O)NC2(CC)CC3CN(CCc4c([nH]c5ccccc45)C(C(=O)OC)(c4cc5c(cc4OC)N(C)C4C(O)(C(=O)OC)C(OC(C)=O)C6(CC)C=CCN7CCC54C76)C3)C2)cc1` (stereo not shown) [Compound 30], the IC50 with HCT116 (Table 2) came to 0.7 nM; in the experiment on L1210 (Table 2), 0.65 nM. For the same molecule, the “potency relative to vinblastine (more potent)” value with HCT116 was determined as 10 fold.
For `CCc1cc(CC)cc(C(=O)N[C@@]2(CC)C[C@H]3CN(CCc4c([nH]c5ccccc45)[C@@](C(=O)OC)(c4cc5c(cc4OC)N(C)[C@H]4[C@@](O)(C(=O)OC)[C@H](OC(C)=O)[C@]6(CC)C=CCN7CC[C@]54[C@@H]76)C3)C2)c1` [Compound 31], the results for the IC50 in the experiment with HCT116 (Table 2) and with L1210 (Table 2) were 6.4 nM and 4.2 nM, respectively.
Turning to `CC[C@]1(NC(=O)c2ccc(C(C)C)cc2)C[C@H]2CN(CCc3c([nH]c4ccccc34)[C@@](C(=O)OC)(c3cc4c(cc3OC)N(C)[C@H]3[C@@](O)(C(=O)OC)[C@H](OC(C)=O)[C@]5(CC)C=CCN6CC[C@]43[C@@H]65)C2)C1` [Compound 32], the IC50 came to 6.4 nM in the experiment on HCT116 (Table 2) and 5.4 nM in the experiment with L1210 (Table 2).
With `CCC1(NC(=O)c2cccc(C(C)C)c2)CC2CN(CCc3c([nH]c4ccccc34)C(C(=O)OC)(c3cc4c(cc3OC)N(C)C3C(O)(C(=O)OC)C(OC(C)=O)C5(CC)C=CCN6CCC43C65)C2)C1` (stereo not shown) [Compound 33], the IC50 in the experiment on HCT116 (Table 2) was determined as 8.7 nM; in the experiment on L1210 (Table 2), 7.5 nM.
As for `CCCc1ccc(C(=O)NC2(CC)CC3CN(CCc4c([nH]c5ccccc45)C(C(=O)OC)(c4cc5c(cc4OC)N(C)C4C(O)(C(=O)OC)C(OC(C)=O)C6(CC)C=CCN7CCC54C76)C3)C2)cc1` (stereo not shown) [Compound 34], the IC50 in the experiment on HCT116 (Table 2) was 4.8 nM; with L1210 (Table 2) it was 4.3 nM.
For `CCCCc1ccc(C(=O)N[C@@]2(CC)C[C@H]3CN(CCc4c([nH]c5ccccc45)[C@@](C(=O)OC)(c4cc5c(cc4OC)N(C)[C@H]4[C@@](O)(C(=O)OC)[C@H](OC(C)=O)[C@]6(CC)C=CCN7CC[C@]54[C@@H]76)C3)C2)cc1` [Compound 35], in that order: 20 nM and 30 nM.
As for `CC[C@]1(NC(=O)c2ccc(CC(C)C)cc2)C[C@H]2CN(CCc3c([nH]c4ccccc34)[C@@](C(=O)OC)(c3cc4c(cc3OC)N(C)[C@H]3[C@@](O)(C(=O)OC)[C@H](OC(C)=O)[C@]5(CC)C=CCN6CC[C@]43[C@@H]65)C2)C1` [Compound 36], the IC50 in the experiment on HCT116 (Table 2) came to 10 nM; in the experiment with L1210 (Table 2), 25 nM.
In the same order, the values of `CCC(C)c1ccc(C(=O)N[C@@]2(CC)C[C@H]3CN(CCc4c([nH]c5ccccc45)[C@@](C(=O)OC)(c4cc5c(cc4OC)N(C)[C@H]4[C@@](O)(C(=O)OC)[C@H](OC(C)=O)[C@]6(CC)C=CCN7CC[C@]54[C@@H]76)C3)C2)cc1` (stereo partly shown) [Compound 37] are 15 nM and 25 nM.
For `CC[C@]1(NC(=O)c2ccc(C(C)(C)C)cc2)C[C@H]2CN(CCc3c([nH]c4ccccc34)[C@@](C(=O)OC)(c3cc4c(cc3OC)N(C)[C@H]3[C@@](O)(C(=O)OC)[C@H](OC(C)=O)[C@]5(CC)C=CCN6CC[C@]43[C@@H]65)C2)C1` [Compound 38], in that order: 1.9 nM and 0.6 nM.
In the same order, the values of `CCC1(NC(=O)c2ccc(C(F)(F)F)cc2)CC2CN(CCc3c([nH]c4ccccc34)C(C(=O)OC)(c3cc4c(cc3OC)N(C)C3C(O)(C(=O)OC)C(OC(C)=O)C5(CC)C=CCN6CCC43C65)C2)C1` (stereo not shown) [Compound 39] are 3.3 nM and 4.3 nM.
For `CC[C@]1(NC(=O)c2cccc(C(F)(F)F)c2)C[C@H]2CN(CCc3c([nH]c4ccccc34)[C@@](C(=O)OC)(c3cc4c(cc3OC)N(C)[C@H]3[C@@](O)(C(=O)OC)[C@H](OC(C)=O)[C@]5(CC)C=CCN6CC[C@]43[C@@H]65)C2)C1` [Compound 40], the values for the IC50 with HCT116 (Table 2) and in the experiment on L1210 (Table 2) were 6.4 nM and 6.2 nM, respectively.
Consider `CCC1(NC(=O)c2ccccc2C(F)(F)F)CC2CN(CCc3c([nH]c4ccccc34)C(C(=O)OC)(c3cc4c(cc3OC)N(C)C3C(O)(C(=O)OC)C(OC(C)=O)C5(CC)C=CCN6CCC43C65)C2)C1` (stereo not shown) [Compound 41], for which the IC50 with HCT116 (Table 2) is 60 nM; with L1210 (Table 2), 45 nM.
In the same order, the values of `CCC1(NC(=O)c2ccc(-c3ccccc3)cc2)CC2CN(CCc3c([nH]c4ccccc34)C(C(=O)OC)(c3cc4c(cc3OC)N(C)C3C(O)(C(=O)OC)C(OC(C)=O)C5(CC)C=CCN6CCC43C65)C2)C1` (stereo not shown) [Compound 42] are 5.4 nM and 5.5 nM.
